Results reported in US7923429B2, “Treatment for CD5+ B cell lymphoma” (3M Innovative Properties Company, priority 2003, dated 2011).

Tests used:
[1] = tested on: CLL cells; experiment: Elimination of CLL cells by autologous T cells in co-culture; format: cell-based, human; conditions: alone or in combination with IL-2 and/or bryostatin; 1:1 CLL:T cells, 5 days
Protocol: CLL cells and T cells were isolated from a CLL patient, suspended at concentrations of 10^6 cells/mL and mixed in a 1:1 ratio. The cell mixtures were cultured alone, or in the presence of IL-2, IL-2 and IRM1, bryostatin, bryostatin and IL-2, bryostatin and IRM1, or bryostatin, IL-2, and IRM1. In FIG. 5A, after 5 days, the percentages of CD5^+ CD19^+ tumor cells (indicated by the numbers in the right upper quadrants of the dot-plots) and CD5^+ CD19^− T cells were determined by flow cytometry. In FIG. 5B, these percentages and the total numbers of viable cells (determined by manual counting in a hemocytometer) were used to calculate the remaining absolute numbers of CLL cells in the cultures.

[2] = tested on: CLL cells; experiment: Costimulatory molecule expression by activated CLL cells (flow cytometry); format: cell-based, human
Protocol: Blood samples: Heparinized blood (30-40 mL) was collected from consenting CLL patients (diagnosed by a persistent elevation of CD19^+CD5^+ IgM^lo lymphocytes (Rozman and Montserrat, New Engl. J. Med. 1995; 333:1052-1057)). All patients were untreated at the time of analysis. Protocols were approved by the appropriate Institutional Review Board.
Cell purification: CLL and T cells were isolated from fresh blood by negative selection (RosetteSep, StemCell Technologies, Vancouver, BC) as described by Gitelson et al. (Gitelson et al., Clin. Cancer Res. 2003; 99:1656-1665).
Activation of CLL cells: Purified CLL cells (1.5×10^6 cells/mL) were cultured in serum-free AIM-V medium plus 2-mercaptoethanol (2-ME, 5×10^−5 M) (Sigma Chemical Co.) in 6- or 24-well plates (Becton-Dickinson Labware, Franklin Lake, N.J.) for 3-4 days at 37° C. in 5% CO2. CLL cells were activated by adding the Negative Control compound (1 μg/mL), IRM1 (1 μg/mL), IL-2 (5000 U/mL), PDB (100 ng/mL), or bryostatin ([…]), as appropriate.
Flow cytometry: Cell staining was performed as described by Gitelson et al. (Gitelson et al., Clin. Cancer Res. 2003; 99:1656-1665).
CLL cells from the indicated number of patients were cultured in IRM1 (1 μg/mL) for 3-4 days, and then assayed for expression of the costimulatory molecules indicated on the x-axis (at an intensity greater than the first decade of log fluorescence) of FIG. 1A. The percentage of cells that expressed each costimulatory molecule and the mean fluorescence intensity (MFI) of expression were measured by flow cytometry. The “fold-increase” was then calculated from the ratio of these measurements to the percentage and MFI of control cells cultured without activating agents. […]
CLL cells were isolated and cultured alone or with IL-2 (5000 U/mL), IRM1 (1 μg/mL), or both IL-2 and IRM1 for 3-4 days. The expression of CD80, CD86, CD54, and CD83 was then determined by flow cytometry.
CD80, CD83, CD54, and CD86 expression were then determined by flow cytometry.

[3] = tested on: lymphomatous skin deposits associated with chronic lymphocytic leukemia; experiment: Topical treatment of lymphomatous skin deposits in a CLL patient; format: in vivo, human; conditions: topical IRM2; count at beginning 36×10^6 cells/mL
Excerpt: A person was diagnosed with Rai Stage 0 CLL on the basis of a persistent elevated count of circulating monoclonal CD19^+ CD5^+ IgM^lo lymphocytes, determined by flow cytometry. CD38 was expressed by 45% of circulating CLL cells. The white blood cell counts at the beginning and end of treatment with IRM2 were 36×10^6 cells/mL and 45×10^5 cells/mL, respectively. Other systemic chemotherapy, steroids, or radiation had not been administered previously.
Additionally, the patient reported having recurrent nodular, erythematous lesions on their hands and arms for approximately eight years. The lesions were usually removed by treatment with liquid nitrogen. At the time they were diagnosed with CLL, they had several such lesions over their upper back (FIG. 8A) and arms. One lesion was biopsied and found to contain a diffuse atypical lymphoid dermal infiltrate consisting of many small, round lymphocytes, without epidermotropism.
A 5% cream of IRM2 was applied to the affected area three times per week.
Administration of 5% IRM2 cream was increased to once per day.

[4] = tested on: T cells from CLL patients; experiment: Mixed lymphocyte response: T cell proliferation stimulated by activated, irradiated CLL cells; format: cell-based, human; conditions: CLL cells activated 3-4 days, MLR 5-6 days, alamar blue
Excerpt: Mixed Lymphocyte Responses (MLRs): T cells were isolated from CLL patients and adjusted to 5×10^5 cells/mL in AIM-V medium. Activated CLL cells were washed at least 4 times to remove residual immunomodulators, irradiated (2500 cGy) and suspended at 5×10^5 cells/mL (or lower concentrations) in AIM-V. Responders and stimulators were then mixed in a 1:1 (vol:vol) ratio and cultured in 96-well round bottom plates (Becton Dickinson Labware, Franklin Lake, N.J.) without additional cytokines or serum. Proliferation was measured 4-6 days later using a colorimetric assay (Gitelson et al., Clin Cancer Res. 2003; 99:1656-1665; and Ahmed et al., J. Immunol. Methods. 1994; 170:211-224).
CLL cells were purified from individual patients and cultured alone or with IL-2, IRM1, IL-2 and IRM1, PDB, PDB and IL-2, PDB and IRM1, or PDB, IL-2, and IRM1. After 3-4 days, these cells were harvested, washed extensively, irradiated (2500 cGy) and used to stimulate allogenic or autologous T cells from CLL patients (obtained at the same time as the CLL cells and rested in culture until added to the Mixed Lymphocytic Response (MLR) assay) after 5-6 days of culture, alamar blue was added and proliferation was measured in an optical density calorimetric microplate reader at wavelengths of 540 (reduced state) and 595 (oxidized state). […]

CCOCc1nc2c(N)nc3c(c2n1CC(C)(C)O)CCCC3.O [IRM1, 4-amino-2-(ethoxymethyl)-α,α-dimethyl-6,7,8,9-tetrahydro-1H-imidazo[4,5-c]quinoline-1-ethanol hydrate]
killing of CLL cells by autologous T cells in vitro [1]: induced autologous T cells to kill CLL cells
dependence of ICOS-L expression on signaling ([2]; IL-2 5000 U/mL, IRM1 1 μg/mL): relatively independent
expression of 4-1BBL and PDL-1 ([2]; IL-2 5000 U/mL, IRM1 1 μg/mL, less than CD80, CD86, CD54): increased somewhat
effect on CD80 compared with effect on CD86 ([2]; IRM1 1 μg/mL): greater
potency as single agent in increasing CD80 and CD86 expression, relative to IL-2 ([2]; IRM1 1 μg/mL vs IL-2 5000 U/mL, 3-4 days): more potent than IL-2
CD80, CD86, and CD54 expression ([2]; IRM1 1 μg/mL, 3-4 days): especially strong effects
ICOS-L expression ([2]; IRM1 1 μg/mL, 3-4 days): little effect
MFI of CD80, CD86, CD54, and CD83 ([2]; IRM1 1 μg/mL, 3-4 days): increased the expression of all four
expression of CD83, 4-1BBL, and PDL-1 ([2]; IRM1 1 μg/mL, 3-4 days): increased
patients whose CLL cells showed increased expression of CD54, CD80, and CD86 ([2]; IRM1 1 μg/mL, 3-4 days, n=31): all patients studied
percentage of CLL cells that expressed CD80 and CD86, and MFI of expression ([2]; single agent, IL-2 5000 U/mL or IRM1 1 μg/mL, 3-4 days): increased

CC(C)Cn1cnc2c(N)nc3ccccc3c21 [IRM2, 1-(2-methylpropyl)-1H-imidazo[4,5-c]quinolin-4-amine]
white blood cell count at end of treatment [3]: 45×10^5 cells/mL

CC(C)Cn1cnc2c(O)nc3ccccc3c21 [Negative Control, 4-hydroxy-1-isobutyl-1H-imidazo[4,5-c]quinoline, reference compound]
effects on CLL cells ([2]; 1 μg/mL, 3-4 days culture): did not have measurable effects

CCCC(=O)O[C@@H]1[C@@H](C)[C@@]2(O)[C@@H](C=C(CO)C[C@]3(O)C(=O)C(C)=C[C@@H]23)[C@@H]2C(C)(C)[C@]12OC(=O)CCC [PDB, Phorbol dibutyrate, reference compound]
CD54 and ICOS-L expression ([2]; PDB alone, 100 ng/mL): not affected greatly
expression of 4-1BBL and PDL-1 ([2]; PDB alone, 100 ng/mL): increased
CLL cells expressing CD83 ([2]; PDB alone, 100 ng/mL, 3-4 days): ~90%
number of CD80+ and CD86+ CLL cells ([2]; PDB alone, 100 ng/mL, CD86+ more than CD80+): increased
ability of activated CLL cells to stimulate T cell proliferation [4]: weak stimulators

poly (I:C) [reference compound]
costimulatory molecule expression (CD80, CD86) by CLL cells ([2]; 100 μg/mL, 48 hours): rarely affected
